Data published in patent publication US11498903B2 (BRISTOL-MYERS SQUIBB COMPANY, priority 2017, dated 2022).
Read-outs that look alike come from different tables or passages of the source.

Molecular target: T1, human APJ receptor (Homo sapiens, UniProt P35414)
T1 construct: expressed in transfected cells
T1 sequence (P35414 1-380): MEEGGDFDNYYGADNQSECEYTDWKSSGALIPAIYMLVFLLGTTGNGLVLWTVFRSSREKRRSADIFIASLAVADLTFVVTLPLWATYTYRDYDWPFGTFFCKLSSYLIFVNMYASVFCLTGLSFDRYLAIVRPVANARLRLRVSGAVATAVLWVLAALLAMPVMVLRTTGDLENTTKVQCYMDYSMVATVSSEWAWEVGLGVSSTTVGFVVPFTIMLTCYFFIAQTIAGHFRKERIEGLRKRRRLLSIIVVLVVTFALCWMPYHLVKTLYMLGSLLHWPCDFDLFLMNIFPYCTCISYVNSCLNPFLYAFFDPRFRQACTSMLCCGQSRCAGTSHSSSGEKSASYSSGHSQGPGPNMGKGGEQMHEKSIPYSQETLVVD
Experiment: Intracellular cAMP accumulation assay (APJ hcAMP, HTRF)
Type: cell-based
Settings: HEK293 cells stably expressing human APJ receptor
Method in brief: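 Inhibition of 2 μM forskolin-driven cAMP ([…] present) measured by HTRF in 5,000 HEK293 cells/well stably expressing human APJ, 30 min, room temperature. EC50 came from a variable-slope sigmoidal fit; Ymax was relative to (Pyr1)apelin-13 set at 100%.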

[1] = Table 1, inhibition of forskolin-mediated cAMP production, read-out: APJ hcAMP EC50
[2] = Table 2, read-out: APJ cAMP Human EC50

SMILES	EC50 [1] [µM]	EC50 [2] [µM]
CCC[C@@H](NC(=O)c1ccc(-c2cc(Cl)ccc2-c2nc3cc(C)ccc3[nH]2)c(C(=O)O)c1)c1ccccc1 [Example 14, 5′-chloro-2′-(5-methyl-1H-1,3-benzodiazol-2-yl)-4-{[(1R)-1-phenylbutyl]carbamoyl}-[1,1′-biphenyl]-2-carboxylic acid]	< 0.01	< 0.01
CCC[C@@H](NC(=O)c1ccc(-c2cc(Cl)ccc2-c2nc3cc(C4CC4)ccc3[nH]2)c(C(=O)O)c1)c1ccccc1 [Example 15, 5′-chloro-2′-(5-cyclopropyl-1H-1,3-benzodiazol-2-yl)-4-{[(1R)-1-phenylbutyl]carbamoyl}-[1,1′-biphenyl]-2-carboxylic acid]	< 0.01	< 0.01
CCC[C@@H](NC(=O)c1ccc(-c2cc(Cl)ccc2-c2nc3cc(CC(F)(F)F)ccc3[nH]2)c(C(=O)O)c1)c1ccccc1 [Example 16, 5′-chloro-4-{[(1R)-1-phenylbutyl]carbamoyl}-2′-[5-(2,2,2-trifluoroethyl)-1H-1,3-benzodiazol-2-yl]-[1,1′-biphenyl]-2-carboxylic acid]	< 0.01	< 0.01
CCC[C@@H](NC(=O)c1ccc(-c2cc(Cl)ccc2-c2nc3c(F)cccc3[nH]2)c(C(=O)O)c1)c1ccccc1 [Example 17, 5′-chloro-2′-(4-fluoro-1H-1,3-benzodiazol-2-yl)-4-{[(1R)-1-phenylbutyl]carbamoyl}-[1,1′-biphenyl]-2-carboxylic acid]	< 0.01	< 0.01
CCC[C@@H](NC(=O)c1ccc(-c2cc(Cl)ccc2-c2nc3cc(C(F)(F)F)ccc3[nH]2)c(C(=O)O)c1)c1ccccc1 [Example 18, 5′-chloro-4-{[(1R)-1-phenylbutyl]carbamoyl}-2′-[5-(trifluoromethyl)-1H-1,3-benzodiazol-2-yl]-[1,1′-biphenyl]-2-carboxylic acid]	< 0.01	< 0.01
CCC[C@@H](NC(=O)c1ccc(-c2cc(Cl)ccc2-c2nc3cc(C(C)(C)C)ccc3[nH]2)c(C(=O)O)c1)c1ccccc1 [Example 19, 2′-(5-tert-butyl-1H-1,3-benzodiazol-2-yl)-5′-chloro-4-{[(1R)-1-phenylbutyl]carbamoyl}-[1,1′-biphenyl]-2-carboxylic acid]	< 0.01	< 0.01
CCC[C@@H](NC(=O)c1ccc(-c2cc(Cl)ccc2-c2nc3c(O)cccc3[nH]2)c(C(=O)O)c1)c1ccccc1 [Example 20, 5′-chloro-2′-(4-hydroxy-1H-1,3-benzodiazol-2-yl)-4-{[(1R)-1-phenylbutyl]carbamoyl}-[1,1′-biphenyl]-2-carboxylic acid]	< 0.01	< 0.01
CCC[C@@H](NC(=O)c1ccc(-c2cc(Cl)ccc2-c2nc3cc(C(=O)OC)ccc3[nH]2)c(C(=O)O)c1)c1ccccc1 [Example 21, 5′-chloro-2′-[5-(methoxycarbonyl)-1H-1,3-benzodiazol-2-yl]-4-{[(1R)-1-phenylbutyl]carbamoyl}-[1,1′-biphenyl]-2-carboxylic acid]	< 0.01	< 0.01
CCC[C@@H](NC(=O)c1ccc(-c2cc(Cl)ccc2-c2nc3cc(OC(F)(F)F)ccc3[nH]2)c(C(=O)O)c1)c1ccccc1 [Example 22, 5′-chloro-4-{[(1R)-1-phenylbutyl]carbamoyl}-2′-[5-(trifluoromethoxy)-1H-1,3-benzodiazol-2-yl]-[1,1′-biphenyl]-2-carboxylic acid]	0.01 to 0.1	0.01 to 0.1
CCC[C@@H](NC(=O)c1ccc(-c2cc(Cl)ccc2-c2nc3ncc(C)cc3[nH]2)c(C(=O)O)c1)c1ccccc1 [Example 23, 5′-chloro-2′-{6-methyl-1H-imidazo[4,5-b]pyridin-2-yl}-4-{[(1R)-1-phenylbutyl]carbamoyl}-[1,1′-biphenyl]-2-carboxylic acid]	0.01 to 0.1	0.01 to 0.1
CCC[C@@H](NC(=O)c1ccc(-c2cc(Cl)ccc2-c2nc3ccncc3[nH]2)c(C(=O)O)c1)c1ccccc1 [Example 24, 5′-chloro-2′-{1H-imidazo[4,5-c]pyridin-2-yl}-4-{[(1R)-1-phenylbutyl]carbamoyl}-[1,1′-biphenyl]-2-carboxylic acid]	0.01 to 0.1	0.01 to 0.1
CCC[C@@H](NC(=O)c1ccc(-c2cc(Cl)ccc2-c2nc3c(ccc4ccccc43)[nH]2)c(C(=O)O)c1)c1ccccc1 [Example 25, 5′-chloro-2′-{3H-naphtho[1,2-d]imidazol-2-yl}-4-{[(1R)-1-phenylbutyl]carbamoyl}-[1,1′-biphenyl]-2-carboxylic acid]	0.01 to 0.1	0.01 to 0.1
CCC[C@@H](NC(=O)c1ccc(-c2cc(Cl)ccc2-c2nc3cc4c(cc3[nH]2)OCO4)c(C(=O)O)c1)c1ccccc1 [Example 26, 5′-chloro-2′-{4,6-dioxa-10,12-diazatricyclo[7.3.0.0^3,^7]dodeca-1(9),2,7,10-tetraen-11-yl}-4-{[(1R)-1-phenylbutyl]carbamoyl}-[1,1′-biphenyl]-2-carboxylic acid]	0.01 to 0.1	0.01 to 0.1
CCC[C@@H](NC(=O)c1ccc(-c2cc(Cl)ccc2-c2nc3cc4ccccc4cc3[nH]2)c(C(=O)O)c1)c1ccccc1 [Example 27, 5′-chloro-2′-{1H-naphtho[2,3-d]imidazol-2-yl}-4-{[(1R)-1-phenylbutyl]carbamoyl}-[1,1′-biphenyl]-2-carboxylic acid]	0.01 to 0.1	0.01 to 0.1
CCC[C@@H](NC(=O)c1ccc(-c2cc(Cl)ccc2-c2nc3cc(C#N)ccc3[nH]2)c(C(=O)O)c1)c1ccccc1 [Example 28, 5′-chloro-2′-(5-cyano-1H-1,3-benzodiazol-2-yl)-4-{[(1R)-1-phenylbutyl]carbamoyl}-[1,1′-biphenyl]-2-carboxylic acid]	0.01 to 0.1	0.01 to 0.1
CCC[C@@H](NC(=O)c1ccc(-c2cc(Cl)ccc2-c2nc3ncncc3[nH]2)c(C(=O)O)c1)c1ccccc1 [Example 29, 5′-chloro-4-{[(1R)-1-phenylbutyl]carbamoyl}-2′-(7H-purin-8-yl)-[1,1′-biphenyl]-2-carboxylic acid]	0.01 to 0.1	0.01 to 0.1
CCC[C@@H](NC(=O)c1ccc(-c2cc(Cl)ccc2-c2nc3nc(C)ccc3[nH]2)c(C(=O)O)c1)c1ccccc1 [Example 30, 5′-chloro-2′-{5-methyl-1H-imidazo[4,5-b]pyridin-2-yl}-4-{[(1R)-1-phenylbutyl]carbamoyl}-[1,1′-biphenyl]-2-carboxylic acid]	0.01 to 0.1	0.01 to 0.1
CCC[C@@H](NC(=O)c1ccc(-c2cc(Cl)ccc2-c2nc3ncccc3[nH]2)c(C(=O)O)c1)c1ccccc1 [Example 31, 5′-chloro-2′-{1H-imidazo[4,5-b]pyridin-2-yl}-4-{[(1R)-1-phenylbutyl]carbamoyl}-[1,1′-biphenyl]-2-carboxylic acid]	0.01 to 0.1	0.01 to 0.1
CCC[C@@H](NC(=O)c1ccc(-c2cc(C)ccc2-c2nc3ccccc3[nH]2)c(C(=O)O)c1)c1ccccc1 [Example 32, 2′-(1H-1,3-benzodiazol-2-yl)-5′-methyl-4-{[(1R)-1-phenylbutyl]carbamoyl}-[1,1′-biphenyl]-2-carboxylic acid]	< 0.01	< 0.01
CCC[C@@H](NC(=O)c1ccc(-c2cc(F)ccc2-c2nc3ccccc3[nH]2)c(C(=O)O)c1)c1ccccc1 [Example 33, 2′-(1H-1,3-benzodiazol-2-yl)-5′-fluoro-4-{[(1R)-1-phenylbutyl]carbamoyl}-[1,1′-biphenyl]-2-carboxylic acid]	< 0.01	< 0.01
CCC[C@@H](NC(=O)c1ccc(-c2ccc(F)cc2-c2nc3ccccc3[nH]2)c(C(=O)O)c1)c1ccccc1 [Example 34, 2′-(1H-1,3-benzodiazol-2-yl)-4′-fluoro-4-{[(1R)-1-phenylbutyl]carbamoyl}-[1,1′-biphenyl]-2-carboxylic acid]	< 0.01	< 0.01
CCC[C@@H](NC(=O)c1ccc(-c2cc(C)ccc2-c2nc3cc(OC)ccc3[nH]2)c(C(=O)O)c1)c1ccccc1 [Example 35, 2′-(5-methoxy-1H-1,3-benzodiazol-2-yl)-5′-methyl-4-{[(1R)-1-phenylbutyl]carbamoyl}-[1,1′-biphenyl]-2-carboxylic acid]	< 0.01	< 0.01
CCC[C@@H](NC(=O)c1ccc(-c2cc(F)ccc2-c2nc3cc(OC)ccc3[nH]2)c(C(=O)O)c1)c1ccccc1 [Example 36, 5′-fluoro-2′-(5-methoxy-1H-1,3-benzodiazol-2-yl)-4-{[(1R)-1-phenylbutyl]carbamoyl}-[1,1′-biphenyl]-2-carboxylic acid]	< 0.01	< 0.01
CCC[C@@H](NC(=O)c1ccc(-c2ccc(F)cc2-c2nc3cc(OC)ccc3[nH]2)c(C(=O)O)c1)c1ccccc1 [Example 37, 4′-fluoro-2′-(5-methoxy-1H-1,3-benzodiazol-2-yl)-4-{[(1R)-1-phenylbutyl]carbamoyl}-[1,1′-biphenyl]-2-carboxylic acid]	< 0.01	< 0.01
CCC[C@@H](NC(=O)c1ccc(-c2cc(C)ccc2-c2nc3cc(C(C)(C)C)ccc3[nH]2)c(C(=O)O)c1)c1ccccc1 [Example 38, 2′-(5-tert-butyl-1H-1,3-benzodiazol-2-yl)-5′-methyl-4-{[(1R)-1-phenylbutyl]carbamoyl}-[1,1-biphenyl]-2-carboxylic acid]	< 0.01	< 0.01
